In ChEMBL document CHEMBL5338801, “Carbohydrate Strengthens the Immunotherapeutic Effect of Small-Molecule PD-L1 Inhibitors” (J Med Chem, 2023):
Active and inactive are the calls of the source. The rule behind the calls is not given here.

Columns and labels:
[1] = Half life in CD-1 mouse at 5 mg/kg, iv measured upto 24 hrs by UPLC analysis; type: ADME, organism-based; conditions: in vivo
[2] = molecular target: Programmed cell death 1 ligand 1 (Homo sapiens) (UniProt Q9NZQ7); test: Inhibition of human PD-L1 overexpressed in RKO cells assessed as reduction in membrane activity cocultured for 48 hrs by flow cytometry analysis; type: cell-based
[3] = Toxicity in C57BL/6 mouse implanted with mouse B16-F10 cells assessed as weight loss at 5 mg/kg, it qd administered for 6 days measured after 7 days relative to control; type: organism-based; conditions: in vivo, other, 168 h, time 7 day
CT26 [4] = test: Downregulation of mitogen-activated protein kinase 15 in mouse CT26 cells implanted in Balb/c mouse tumor by LC/MS analysis; type: functional, cell-based
[5] = Volume of distribution at steady state in CD-1 mouse at 5 mg/kg, iv measured upto 24 hrs by UPLC analysis; type: ADME, organism-based; conditions: in vivo, read-out: Vdss
[6] = Cmax in CD-1 mouse at 10 mg/kg, ig measured upto 24 hrs by UPLC analysis; type: ADME, organism-based; set-up: dose 10 mg/kg, time < 24 hrs, route ig; conditions: in vivo, po
[7] = molecular target: T1, Programmed cell death protein 1/Programmed cell death 1 ligand 1 (Homo sapiens, UniProt Q9NZQ7); test: Inhibition of PD-1/PD-L1 (unknown origin) interaction incubated for 15 mins by HTRF assay; type: protein-complex assay
CT26 [8] = test: Downregulation of STING ER exit protein in Balb/c mouse tumor implanted with mouse CT26 cells by LC/MS analysis; type: functional, cell-based
B16-F10 [9] = test: Antitumor activity against mouse B16-F10 cells implanted in C57BL/6 mouse assessed as tumor growth inhibition at 100 mg/kg, po qd for 6 days and measured once a day for 7 days relative to control; type: functional; conditions: B16-F10, 168 h, time 7 day, read-out: TGI
[10] = Observed MRT infinity in CD-1 mouse at 10 mg/kg, ig measured upto 24 hrs by UPLC analysis; type: ADME, organism-based; conditions: in vivo, po
[11] = Observed clearance in CD-1 mouse at 5 mg/kg, iv measured upto 24 hrs by UPLC analysis; type: ADME, organism-based; conditions: in vivo
Jurkat = test: Cytotoxicity against human Jurkat T cells assessed as cell growth inhibition upto 30 uM incubated for 48 hrs by MTT assay; type: toxicity, cell-based
[12] = Partition coefficient, logD of compound in 1-octanol and phosphate buffer at pH 7.4 incubated for 1 hr under shaking condition by HPLC analysis; type: physicochemical; conditions: 1-octanol/phosphate buffer, pH 7.4
[13] = Toxicity in C57BL/6 mouse implanted with mouse B16-F10 cells assessed as weight loss at 100 mg/kg, po qd administered for 6 days measured after 7 days relative to control; type: organism-based; conditions: in vivo, 168 h, time 7 day
RKO [14] = test: Cytotoxicity against human RKO cells over expressing human PD-L1 at 50 uM; type: toxicity, cell-based
CT26 [15] = test: Downregulation of mouse PD-L1 expressed in CT26 cells incubated for 48 hrs; type: functional, cell-based
[16] = Toxicity in C57BL/6 mouse implanted with mouse B16-F10 cells assessed as weight loss at 25 mg/kg, ip qd administered for 6 days measured after 7 days relative to control; type: organism-based; conditions: in vivo, 168 h, time 7 day
[17] = Toxicity in BALB/c mouse implanted with mouse CT26 cells assessed as weight loss at 25 mg/kg, ip qd administered for 10 days measured every 2 days for 12 days relative to control; type: organism-based; conditions: in vivo, 288 h, time 12 day
[18] = Half life in CD-1 mouse at 10 mg/kg, ig measured upto 24 hrs by UPLC analysis; type: ADME, organism-based; conditions: in vivo, po
[19] = Upregulation of IFN-gamma secretion in human CD4+ve Th cells cocultured with DC cells incubated for 120 hrs by ELISA; type: functional
[20] = Observed MRT infinity in CD-1 mouse at 5 mg/kg, iv measured upto 24 hrs by UPLC analysis; type: ADME, organism-based; conditions: in vivo
[21] = molecular target: Programmed cell death 1 ligand 1 (Homo sapiens) (UniProt Q9NZQ7); test: Induction of human PD-L1 degradation expressed in MC38 cells at 1 to 10 uM cocultured for 72 hrs by Western blotting analysis; type: cell-based; conditions: dose 1-10 µM
CT26 [22] = test: Downregulation of BET1 homologue in Balb/c mouse tumor implanted with mouse CT26 cells by LC/MS analysis; type: functional, cell-based
CT26 [23] = test: Downregulation of immediate early response 3-interacting protein 1 in Balb/c mouse tumor implanted with mouse CT26 cells tumor by LC/MS analysis; type: functional, cell-based
B16-F10 [24] = test: Antitumor activity against mouse B16-F10 cells implanted in C57BL/6 mouse assessed as tumor growth inhibition at 5 mg/kg, it qd for 6 days and measured once a day for 7 days relative to control; type: functional; conditions: B16-F10, 168 h, time 7 day, read-out: TGI
[25] = Observed AUC infinity in CD-1 mouse at 5 mg/kg, iv measured upto 24 hrs by UPLC analysis; type: ADME, organism-based; set-up: dose 5 mg/kg, time < 24 hrs, route iv; conditions: in vivo
[26] = Tmax in CD-1 mouse at 10 mg/kg, ig measured upto 24 hrs by UPLC analysis; type: ADME, organism-based; conditions: in vivo, po
CT26 [27] = test: Antitumor activity against mouse CT26 cells implanted Balb/c mouse assessed as increase CD4+ cell count at 25 mg/kg, ip qd administered for 10 days measured every 2 days for 12 days (reference value: 13.74 +/- 0.51%); type: functional; conditions: time 12 day
[28] = AUClast in CD-1 mouse at 10 mg/kg, ig measured upto 24 hrs by UPLC analysis; type: ADME, organism-based; set-up: dose 10 mg/kg, time < 24 hrs, route ig; conditions: in vivo, po
CT26 [29] = test: Antitumor activity against mouse CT26 cells xenografted Balb/c mouse assessed as increase CD3+ CD8+ T cell count at 25 mg/kg, ip qd administered for 10 days measured every 2 days for 12 days (reference value: 5.77 +/- 0.32%); type: functional; conditions: time 12 day
RKO [30] = test: Downregulation of human PD-L1 expressed in RKO cells incubated for 48 hrs; type: functional, cell-based
B16-F10 [31] = test: Antitumor activity against mouse B16-F10 cells implanted in C57BL/6 mouse assessed as tumor growth inhibition at 25 mg/kg, ip qd for 6 days and measured once a day for 7 days relative to control; type: functional; conditions: B16-F10, 168 h, time 7 day, read-out: TGI
[32] = molecular target: T1, Programmed cell death protein 1/Programmed cell death 1 ligand 1; test: Inhibition of human PD-1/PD-L1 interaction overexpressed in human HEK293T cells by flow cytometry analysis; type: cell-based
[33] = AUClast in CD-1 mouse at 5 mg/kg, iv measured upto 24 hrs by UPLC analysis; type: ADME, organism-based; set-up: dose 5 mg/kg, time < 24 hrs, route iv; conditions: in vivo
CT26 [34] = test: Antitumor activity against mouse CT26 cells implanted in Balb/c mouse assessed as tumor growth inhibition at 25 mg/kg, ip qd administered for 10 days measured every 2 days for 12 days relative to control; type: functional; conditions: CT26, 288 h, time 12 day, read-out: TGI
CT26 [35] = test: Antitumor activity against mouse CT26 cells xenografted Balb/c mouse assessed as granzyme B+ CD8+ T cell count at 25 mg/kg, ip qd administered for 10 days measured every 2 days for 12 days (reference value: 4.31 +/- 2.35%); type: functional; conditions: time 12 day
[36] = molecular target: T1, Programmed cell death protein 1/Programmed cell death 1 ligand 1; test: Inhibition of PD-1/His-tagged PD-L1 (unknown origin) protein-protein interaction incubated for 90 mins by AlphaLISA; type: protein-complex assay
[37] = Tmax in CD-1 mouse at 5 mg/kg, iv measured upto 24 hrs by UPLC analysis; type: ADME, organism-based; conditions: in vivo
[38] = Tmax in CD-1 mouse at 5 mg/kg, ip measured upto 24 hrs by UPLC analysis; type: ADME, organism-based; conditions: in vivo
[39] = Observed MRT infinity in CD-1 mouse at 5 mg/kg, ip measured upto 24 hrs by UPLC analysis; type: ADME, organism-based; conditions: in vivo
[40] = Cmax in CD-1 mouse at 5 mg/kg, iv measured upto 24 hrs by UPLC analysis; type: ADME, organism-based; set-up: dose 5 mg/kg, time < 24 hrs, route iv; conditions: in vivo
[41] = AUClast in CD-1 mouse at 5 mg/kg, ip measured upto 24 hrs by UPLC analysis; type: ADME, organism-based; set-up: dose 5 mg/kg, time < 24 hrs, route ip; conditions: in vivo
[42] = Cmax in CD-1 mouse at 5 mg/kg, ip measured upto 24 hrs by UPLC analysis; type: ADME, organism-based; set-up: dose 5 mg/kg, time < 24 hrs, route ip; conditions: in vivo
[43] = Observed AUC infinity in CD-1 mouse at 5 mg/kg, ip measured upto 24 hrs by UPLC analysis; type: ADME, organism-based; set-up: dose 5 mg/kg, time < 24 hrs, route ip; conditions: in vivo
[44] = Half life in CD-1 mouse at 5 mg/kg, ip measured upto 24 hrs by UPLC analysis; type: ADME, organism-based; conditions: in vivo

T1 sequence (Q15116 whole entry): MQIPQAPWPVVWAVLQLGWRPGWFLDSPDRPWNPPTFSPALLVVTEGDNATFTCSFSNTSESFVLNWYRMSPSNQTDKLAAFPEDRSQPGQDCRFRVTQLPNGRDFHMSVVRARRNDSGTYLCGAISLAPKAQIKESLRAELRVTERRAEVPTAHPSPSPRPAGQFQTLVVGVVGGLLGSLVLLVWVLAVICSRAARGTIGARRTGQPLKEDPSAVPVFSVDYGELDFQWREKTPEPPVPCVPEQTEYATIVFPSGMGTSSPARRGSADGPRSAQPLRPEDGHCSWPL
T1 sequence (Q9NZQ7 whole entry): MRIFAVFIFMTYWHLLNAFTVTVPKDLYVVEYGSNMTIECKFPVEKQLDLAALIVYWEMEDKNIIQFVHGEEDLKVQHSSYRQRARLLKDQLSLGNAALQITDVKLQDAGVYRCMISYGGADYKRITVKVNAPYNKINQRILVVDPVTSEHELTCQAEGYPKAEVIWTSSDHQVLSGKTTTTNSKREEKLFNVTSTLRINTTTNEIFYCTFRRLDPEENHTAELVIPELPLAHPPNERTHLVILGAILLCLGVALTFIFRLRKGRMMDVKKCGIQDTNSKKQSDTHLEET
Sequence of Programmed cell death 1 ligand 1 (Homo sapiens) (Q9NZQ7 whole entry): as above

| Compound | half-life [1] | Activity [3] | inhibition in vivo at 100 mg/kg (B16-F10 [9]) | Activity (Jurkat) | logD at 1 h [12] | Activity [13] | Activity [16] | Activity [17] | fold change (FC) [19] | MRT inf [20] | inhibition in vivo at 5 mg/kg (B16-F10 [24]) | Activity (CT26 [27]) | Activity (CT26 [29]) | inhibition in vivo at 25 mg/kg (B16-F10 [31]) | IC50 [32] | AUC(0-t) at 24 h [33] | inhibition in vivo at 25 mg/kg (CT26 [34]) | Activity (CT26 [35]) | also measured |
| --- | --- | --- | --- | --- | --- | --- | --- | --- | --- | --- | --- | --- | --- | --- | --- | --- | --- | --- | --- |
| COc1nc(OCc2cccc(-c3ccccc3)c2C)ccc1CNCCO[C@@H]1O[C@H](CO)[C@@H](O)[C@H](O)[C@H]1NC(C)=O | 6.36 h | Non-Toxic | 41.1% | Non-Toxic | 2.09 | Non-Toxic | Non-Toxic | Non-Toxic | 2.57 | 3.58 h | 41.1% | 20.53% | 11.47% | 41.1% | 49.4 nM | 2160 ng·h/mL | 77.3% | 5.06% | inhibition [2]: Active; Activity (CT26 [4]): Active; Vd [5]: 6.88 L/kg; Cmax [6]: 31.7 ng/mL; IC50 [7]: 29.2 nM; Activity (CT26 [8]): Active; MRT inf [10]: 10.2 h; clearance [11]: 38.6 mL/min/kg; Activity (RKO [14]): Non-Toxic; Activity (CT26 [15]): Active; half-life [18]: 7.02 h; Activity [21]: Active; Activity (CT26 [22]): Active; Activity (CT26 [23]): Active; AUC(0-inf) ([25]; CD-1, mouse): 2230 ng·h/mL; Tmax [26]: 0.5 h; AUC(0-t) at 24 h [28]: 337 ng·h/mL; Activity (RKO [30]): Active |
| Cc1c(COc2cc(OCc3cncc(C#N)c3)c(CN(CCCN(C)C)CCS(=O)(=O)O)cc2Cl)cccc1-c1ccc2c(c1)OCCO2 | – | – | – | – | – | – | – | – | – | – | – | – | – | – | – | – | – | – | IC50 [36]: 23.5 nM |
| COc1cc(OCc2cccc(-c3ccccc3)c2C)cc(OC)c1CNCCO[C@H]1O[C@H](CO)[C@@H](O)[C@H](O)[C@@H]1O | 3.78 h | Non-Toxic | 41.1% | Non-Toxic | 1.78 | Non-Toxic | Non-Toxic | Non-Toxic | 6.72 | 1.5 h | 41.1% | 18.4% | 8.67% | 41.1% | 60.8 nM | 1090 ng·h/mL | 67.2% | 7.19% | Tmax [37]: 0.58 h; Tmax [38]: 0.58 h; MRT inf [39]: 1.9 h; Cmax [40]: 928 ng/mL; AUC(0-t) at 24 h [41]: 2920 ng·h/mL; Cmax [42]: 1630 ng/mL; AUC(0-inf) [43]: 2990 ng·h/mL; AUC ([25]; mouse, 24 h): 1110 ng·h/mL; half-life [44]: 5.83 h |
